The source of these data is ChEMBL document CHEMBL4334442, “Effects of Acetylshikonin on the Infection and Replication of Coxsackievirus A16 in Vitro and in Vivo” (J Nat Prod, 2019).

The nature of data set [1]: Cytotoxicity against human RD cells assessed as reduction in cell viability after 12 hrs by CCK8 assay. It counts as cell-based. A general note: Formazan colour is commonly taken as a measure of viable cells.
Data set [2] can be described thus: Selectivity index, ratio of CC50 for cytotoxicity against human RD cells to EC50 for antiviral activity against Coxsackievirus A16 TA271 infected in human RD cells. It counts as toxicity, cell-based. Conditions: read-out: Ratio CC50/EC50.
The subject of another data set is Coxsackievirus A16. Description: Antiviral activity against Coxsackievirus A16 TA271 infected in human RD cells assessed as inhibition of virus-induced cytopathic effect preincubated with viral suspension for 2 hrs followed by cell addition and measured after 24 hrs by CCK-8 assay. It counts as functional, cell-based. On the technique in general: Cytopathic effects are the visible damage that an infection or toxin causes in cultured cells.

The term CC50 denotes the concentration at which the toxic effect on the cells reaches its halfway point. Broadly, the EC50 is the concentration giving half of the maximal effect. For `NC(=O)c1ncn([C@@H]2O[C@H](CO)[C@@H](O)[C@H]2O)n1` [RIBAVIRIN], the CC50 at 12 h in data set [1] was 1480 µM. Besides, the selectivity ratio in data set [2] stood at 10.3. In addition, in the data set with Coxsackievirus A16, the Activity entry is “Dose-dependent effect”. For the same compound, the concentration giving a half-maximal response (EC50) with Coxsackievirus A16 (Enterovirus A) came to 144 µM.
